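The compound was tested at five concentrations on cells cultured in 96-well plates, with a 48-hour exposure period. TGI: concentration producing complete growth inhibition.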
Test system: P388/ADR leukemia
Assay: NCI tumour cell line growth inhibition, 48 h

| SMILES | TGI |
| --- | --- |
| N[C@H](C(=O)O)[C@@H]1CC(Cl)=NO1 | 16.7 µM |
| CNC(=O)OCc1nc(SSC(C)(C)C)n(C)c1COC(=O)NC | > 28.2 µM |

Reference: PubChem BioAssay (NCI)
